Data as given in publication doi:10.1101/2021.04.08.439011v1 (biorxiv, 2021).
Where two headings read alike, the source gives them in different places.

How the values were obtained:
PKMYT1 = PKMYT1 (Homo sapiens, UniProt Q99640); conditions: 1 µM; binder
STK39 = STK39 (Homo sapiens, UniProt Q9UEW8); conditions: 1 µM; binder
RIOK2 = RIOK2 (Homo sapiens, UniProt Q9BVS4); conditions: 1 µM; binder
PIP4K2B = PIP4K2B (Homo sapiens, UniProt P78356); conditions: 1 µM; binder
ROCK2 = ROCK2 (Homo sapiens, UniProt O75116); conditions: 1 µM; binder
PIK3CD = PIK3CD (Homo sapiens, UniProt O00329); conditions: 1 µM; binder
EGFR = EGFR (Homo sapiens, UniProt P00533); conditions: 1 µM; binder
PIK4CB = PIK4CB (Homo sapiens, UniProt Q9UBF8); conditions: 1 µM; binder
EPHB4 = EPHB4 (Homo sapiens, UniProt P54760); conditions: 1 µM; binder
PIM1 = PIM1 (Homo sapiens, UniProt P11309); conditions: 1 µM; binder
NEK2 = NEK2 (Homo sapiens, UniProt P51955); conditions: 1 µM; binder
MAP3K15 = MAP3K15 (Homo sapiens, UniProt Q6ZN16); conditions: 1 µM; binder
FGFR1 = FGFR1 (Homo sapiens, UniProt P11362); conditions: 1 µM; binder
TSSK1B = TSSK1B (Homo sapiens, UniProt Q9BXA7); conditions: 1 µM; binder
PHKG2 = PHKG2 (Homo sapiens, UniProt P15735); conditions: 1 µM; binder
DDR1 = DDR1 (Homo sapiens, UniProt Q08345); conditions: 1 µM; binder
RPS6KA1 = RPS6KA1 (Homo sapiens, UniProt Q15418); conditions: binder
ABL1(T315I) = ABL1(T315I) (Homo sapiens, UniProt P00519, T315I); conditions: nonphosphorylated; 1 µM; binder
PCTK1 = PCTK1 (Homo sapiens, UniProt Q00536); conditions: 1 µM; binder
DRAK2 = DRAK2 (Homo sapiens, UniProt O94768); conditions: 1 µM; binder
MEK5 = MEK5 (Homo sapiens, UniProt Q13163); conditions: 1 µM; binder
FLT3-autoinhibited = FLT3-autoinhibited (Homo sapiens, UniProt P36888); conditions: 1 µM; binder
CAMKK1 = CAMKK1 (Homo sapiens, UniProt Q8N5S9); conditions: 1 µM; binder
ZAK = ZAK (Homo sapiens, UniProt Q9NYL2); conditions: 1 µM; binder
RIPK1 = RIPK1 (Homo sapiens, UniProt Q13546); conditions: 1 µM; binder
ERK4 = ERK4 (Homo sapiens, UniProt P31152); conditions: 1 µM; binder
ACVR2A = ACVR2A (Homo sapiens, UniProt P27037); conditions: 1 µM; binder
LZK = LZK (Homo sapiens, UniProt O43283); conditions: 1 µM; binder
JAK2 = JAK2 (Homo sapiens, UniProt O60674); conditions: JH1 domain catalytic; binder
EPHA3 = EPHA3 (Homo sapiens, UniProt P29320); conditions: 1 µM; binder
Chain of EPHA3 (P29320 whole entry): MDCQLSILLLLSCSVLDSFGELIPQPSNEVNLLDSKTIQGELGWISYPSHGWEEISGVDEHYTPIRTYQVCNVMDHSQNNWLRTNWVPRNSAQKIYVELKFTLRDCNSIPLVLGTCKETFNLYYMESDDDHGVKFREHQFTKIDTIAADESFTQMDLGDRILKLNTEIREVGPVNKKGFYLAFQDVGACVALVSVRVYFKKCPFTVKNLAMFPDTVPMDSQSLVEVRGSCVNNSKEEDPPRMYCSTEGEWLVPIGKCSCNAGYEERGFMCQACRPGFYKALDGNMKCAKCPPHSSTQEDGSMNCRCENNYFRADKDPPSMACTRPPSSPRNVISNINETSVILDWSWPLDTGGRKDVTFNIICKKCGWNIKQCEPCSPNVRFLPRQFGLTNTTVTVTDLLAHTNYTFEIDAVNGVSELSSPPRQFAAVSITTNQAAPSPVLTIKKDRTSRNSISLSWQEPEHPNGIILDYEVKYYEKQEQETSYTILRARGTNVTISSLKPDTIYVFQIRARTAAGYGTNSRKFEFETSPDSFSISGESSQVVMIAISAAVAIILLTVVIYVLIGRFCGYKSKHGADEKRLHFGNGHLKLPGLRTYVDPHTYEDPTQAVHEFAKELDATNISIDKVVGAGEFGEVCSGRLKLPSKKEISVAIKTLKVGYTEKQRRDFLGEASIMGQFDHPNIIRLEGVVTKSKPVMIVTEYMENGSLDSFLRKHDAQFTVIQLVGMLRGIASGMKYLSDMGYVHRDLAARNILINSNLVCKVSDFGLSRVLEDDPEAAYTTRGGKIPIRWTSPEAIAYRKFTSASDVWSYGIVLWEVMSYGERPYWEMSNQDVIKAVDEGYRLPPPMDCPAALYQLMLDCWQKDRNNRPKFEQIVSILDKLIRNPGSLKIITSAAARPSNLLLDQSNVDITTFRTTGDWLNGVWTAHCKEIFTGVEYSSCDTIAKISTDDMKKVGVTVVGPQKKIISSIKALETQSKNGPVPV

Chain of RPS6KA1 (Q15418 whole entry): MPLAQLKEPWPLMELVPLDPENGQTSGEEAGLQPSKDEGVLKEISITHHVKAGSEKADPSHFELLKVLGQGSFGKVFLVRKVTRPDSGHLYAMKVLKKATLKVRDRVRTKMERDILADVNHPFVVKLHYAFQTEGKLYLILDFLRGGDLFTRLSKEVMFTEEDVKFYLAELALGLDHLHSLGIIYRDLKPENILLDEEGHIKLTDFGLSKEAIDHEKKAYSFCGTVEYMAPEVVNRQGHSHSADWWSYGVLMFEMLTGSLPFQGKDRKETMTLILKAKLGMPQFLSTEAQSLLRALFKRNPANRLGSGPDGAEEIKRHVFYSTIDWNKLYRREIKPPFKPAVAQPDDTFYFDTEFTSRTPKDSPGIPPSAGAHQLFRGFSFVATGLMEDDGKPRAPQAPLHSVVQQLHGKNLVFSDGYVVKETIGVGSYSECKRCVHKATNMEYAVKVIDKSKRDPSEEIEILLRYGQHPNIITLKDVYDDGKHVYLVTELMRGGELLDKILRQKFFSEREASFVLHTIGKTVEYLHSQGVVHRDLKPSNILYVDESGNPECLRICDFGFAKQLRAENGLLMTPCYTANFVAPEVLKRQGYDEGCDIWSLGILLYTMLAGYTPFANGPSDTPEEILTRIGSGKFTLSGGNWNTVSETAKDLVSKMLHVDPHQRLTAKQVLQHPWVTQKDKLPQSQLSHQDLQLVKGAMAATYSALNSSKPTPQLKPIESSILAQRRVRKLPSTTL
Chain of MEK5 (Q13163 whole entry): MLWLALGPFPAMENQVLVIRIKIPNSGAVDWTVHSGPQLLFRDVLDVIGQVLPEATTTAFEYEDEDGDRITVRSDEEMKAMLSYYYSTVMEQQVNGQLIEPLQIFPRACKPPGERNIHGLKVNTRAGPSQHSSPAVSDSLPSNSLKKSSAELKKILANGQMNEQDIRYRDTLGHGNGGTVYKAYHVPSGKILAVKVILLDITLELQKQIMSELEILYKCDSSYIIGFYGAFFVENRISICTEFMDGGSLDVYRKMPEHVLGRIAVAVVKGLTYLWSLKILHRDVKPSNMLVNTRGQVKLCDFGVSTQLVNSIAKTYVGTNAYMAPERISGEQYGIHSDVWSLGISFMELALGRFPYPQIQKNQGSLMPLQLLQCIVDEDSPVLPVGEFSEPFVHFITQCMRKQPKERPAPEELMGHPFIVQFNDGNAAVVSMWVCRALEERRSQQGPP
Chain of ACVR2A (P27037 whole entry): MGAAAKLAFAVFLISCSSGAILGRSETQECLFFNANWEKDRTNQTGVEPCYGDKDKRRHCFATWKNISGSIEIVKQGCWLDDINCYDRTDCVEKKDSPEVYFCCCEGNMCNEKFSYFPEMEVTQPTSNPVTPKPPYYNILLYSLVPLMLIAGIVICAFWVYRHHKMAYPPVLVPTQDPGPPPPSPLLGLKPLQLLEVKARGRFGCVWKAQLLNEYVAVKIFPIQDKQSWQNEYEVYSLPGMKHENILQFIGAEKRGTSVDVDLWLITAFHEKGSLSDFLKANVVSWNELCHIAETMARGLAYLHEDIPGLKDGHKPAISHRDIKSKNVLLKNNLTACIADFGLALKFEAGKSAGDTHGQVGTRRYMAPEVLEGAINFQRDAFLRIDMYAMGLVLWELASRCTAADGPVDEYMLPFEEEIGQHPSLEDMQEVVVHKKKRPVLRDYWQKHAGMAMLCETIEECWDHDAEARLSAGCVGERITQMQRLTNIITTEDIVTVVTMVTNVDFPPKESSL
Chain of PIK3CD (O00329 whole entry): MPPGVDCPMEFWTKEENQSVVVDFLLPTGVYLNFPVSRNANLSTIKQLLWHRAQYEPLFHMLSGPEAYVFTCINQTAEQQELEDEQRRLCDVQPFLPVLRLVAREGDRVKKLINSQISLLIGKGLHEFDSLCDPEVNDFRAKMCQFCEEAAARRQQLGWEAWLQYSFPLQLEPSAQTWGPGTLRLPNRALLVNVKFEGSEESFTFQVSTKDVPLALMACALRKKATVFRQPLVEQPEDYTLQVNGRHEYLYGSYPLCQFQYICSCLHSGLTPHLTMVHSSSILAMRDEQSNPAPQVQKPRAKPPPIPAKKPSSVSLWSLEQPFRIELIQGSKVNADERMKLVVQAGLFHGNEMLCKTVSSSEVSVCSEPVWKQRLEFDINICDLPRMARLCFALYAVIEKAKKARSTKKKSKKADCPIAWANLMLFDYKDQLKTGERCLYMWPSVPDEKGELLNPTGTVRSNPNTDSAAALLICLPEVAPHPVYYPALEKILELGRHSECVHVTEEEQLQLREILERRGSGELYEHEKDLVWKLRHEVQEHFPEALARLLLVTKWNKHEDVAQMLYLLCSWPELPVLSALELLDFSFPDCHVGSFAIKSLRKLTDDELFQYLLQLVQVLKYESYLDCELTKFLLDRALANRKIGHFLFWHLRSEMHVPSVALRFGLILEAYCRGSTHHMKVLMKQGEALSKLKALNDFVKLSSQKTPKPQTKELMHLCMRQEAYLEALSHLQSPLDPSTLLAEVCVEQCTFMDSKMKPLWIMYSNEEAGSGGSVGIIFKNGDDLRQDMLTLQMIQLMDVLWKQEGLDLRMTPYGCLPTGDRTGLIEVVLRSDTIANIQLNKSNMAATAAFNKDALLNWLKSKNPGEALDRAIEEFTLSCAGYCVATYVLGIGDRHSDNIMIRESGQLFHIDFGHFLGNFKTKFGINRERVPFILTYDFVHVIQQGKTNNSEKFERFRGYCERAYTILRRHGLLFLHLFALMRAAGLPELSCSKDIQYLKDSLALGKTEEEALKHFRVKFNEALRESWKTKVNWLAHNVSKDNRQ
Chain of PHKG2 (P15735 whole entry): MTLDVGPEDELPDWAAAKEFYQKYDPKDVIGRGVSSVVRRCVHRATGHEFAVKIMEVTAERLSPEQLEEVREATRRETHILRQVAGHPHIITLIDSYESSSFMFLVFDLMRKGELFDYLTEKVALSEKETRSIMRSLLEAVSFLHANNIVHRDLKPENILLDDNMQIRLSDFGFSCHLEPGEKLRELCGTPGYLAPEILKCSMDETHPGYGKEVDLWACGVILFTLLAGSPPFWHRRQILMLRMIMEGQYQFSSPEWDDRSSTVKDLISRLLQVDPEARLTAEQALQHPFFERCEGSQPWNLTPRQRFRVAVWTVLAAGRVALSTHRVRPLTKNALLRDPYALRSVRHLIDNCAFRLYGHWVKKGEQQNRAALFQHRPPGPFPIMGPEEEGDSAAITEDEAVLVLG
Chain of PCTK1 (Q00536 whole entry): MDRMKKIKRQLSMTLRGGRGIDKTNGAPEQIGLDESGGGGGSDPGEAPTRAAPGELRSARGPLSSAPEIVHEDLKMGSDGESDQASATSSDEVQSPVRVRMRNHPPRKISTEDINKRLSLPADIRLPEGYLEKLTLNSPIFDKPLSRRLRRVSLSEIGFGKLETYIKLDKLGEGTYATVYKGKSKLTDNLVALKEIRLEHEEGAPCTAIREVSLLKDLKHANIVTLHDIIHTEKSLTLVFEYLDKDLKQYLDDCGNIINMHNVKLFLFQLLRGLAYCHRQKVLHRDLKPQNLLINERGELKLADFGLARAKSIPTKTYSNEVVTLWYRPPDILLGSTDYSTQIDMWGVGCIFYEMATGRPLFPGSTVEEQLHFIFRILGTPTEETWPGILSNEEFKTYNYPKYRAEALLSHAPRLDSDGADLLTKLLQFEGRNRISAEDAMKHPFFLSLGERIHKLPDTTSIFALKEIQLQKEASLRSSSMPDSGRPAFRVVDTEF
Chain of TSSK1B (Q9BXA7 whole entry): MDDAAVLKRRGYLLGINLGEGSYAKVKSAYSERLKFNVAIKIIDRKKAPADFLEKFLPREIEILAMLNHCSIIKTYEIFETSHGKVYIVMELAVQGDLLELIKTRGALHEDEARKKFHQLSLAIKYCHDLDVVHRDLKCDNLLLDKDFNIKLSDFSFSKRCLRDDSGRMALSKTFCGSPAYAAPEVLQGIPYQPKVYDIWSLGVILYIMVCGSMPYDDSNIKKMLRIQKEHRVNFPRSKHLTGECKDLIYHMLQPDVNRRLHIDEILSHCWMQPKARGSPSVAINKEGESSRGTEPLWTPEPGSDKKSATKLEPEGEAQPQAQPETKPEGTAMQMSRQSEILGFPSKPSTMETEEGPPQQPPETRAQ

CNc1ncc2cc(-c3ccc(-c4cccc(C)n4)cc3Cl)c(=O)n(C[C@H]3OC[C@H](N)CO3)c2n1 [compound 6, G-5555]
Percent Control (PKMYT1): 100% | Percent Control (STK39): 100% | Percent Control (RIOK2): 100% | Percent Control (PIP4K2B): 87% | Percent Control (ROCK2): 90% | Percent Control (PIK3CD): 97% | Percent Control (EGFR): 88% | Percent Control (PIK4CB): 100% | Percent Control (EPHB4): 100% | Percent Control (PIM1): 100% | Percent Control (NEK2): 60% | Percent Control (MAP3K15): 48% | Percent Control (FGFR1): 100% | Percent Control (TSSK1B): 100% | Percent Control (PHKG2): 100% | Percent Control (DDR1): 53% | Percent Control (RPS6KA1; Kin.Dom.1 N-terminal): 69% | Percent Control (RPS6KA1; Kin.Dom.2 C-terminal, 1 µM): 81% | Percent Control (ABL1(T315I)): 100% | Percent Control (PCTK1): 100% | Percent Control (DRAK2): 100% | Percent Control (MEK5): 0.2% | Percent Control (FLT3-autoinhibited): 100% | Percent Control (CAMKK1): 100% | Percent Control (ZAK): 100% | Percent Control (RIPK1): 100% | Percent Control (ERK4): 100% | Percent Control (ACVR2A): 100% | Percent Control (LZK): 100% | Percent Control (JAK2): 83% | Percent Control (EPHA3): 88%
